We go through one substance from publication PMC9080270 (RSC Advances, 2018).

The test has as its target T1, adenosine A1 receptor (A1AR) (Homo sapiens, UniProt P30542).
T1 sequence (P30542 1-326): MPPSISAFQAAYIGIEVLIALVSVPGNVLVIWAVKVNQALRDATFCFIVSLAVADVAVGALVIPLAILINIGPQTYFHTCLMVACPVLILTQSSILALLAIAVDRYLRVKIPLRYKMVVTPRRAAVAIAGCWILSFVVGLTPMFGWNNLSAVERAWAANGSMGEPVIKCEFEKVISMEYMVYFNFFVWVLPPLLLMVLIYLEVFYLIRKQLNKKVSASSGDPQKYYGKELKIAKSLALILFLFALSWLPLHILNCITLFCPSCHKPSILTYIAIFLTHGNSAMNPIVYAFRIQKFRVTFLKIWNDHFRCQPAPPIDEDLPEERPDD
Kind of test: NanoBRET saturation binding in HEK293 cells. The test is classed as cell-based. On the technique in general: Bioluminescence resonance energy transfer reports proximity on the nanometre scale.

The term Kd denotes the concentration at which binding is half-saturated. A high value points to a looser complex. As for CA200645, binding was put at a Kd of 110 nM.
